*1 amine or outer side, *2 acyl side, *3 side chain or, on linkers, in order; H or OH if unused. Where a SMILES comes first, the peptide text is derived from it. Bridges are numbered along the chain shown (N, C = ends). [ ]: non-standard residue; d: D form. The star is where a group is joined. Leu(3R-OH,Nα-propionyl) = CCC(=O)N[C@H](C(=O)*)[C@H](O)C(C)C; X1 = CC(C)[C@@H](O[*:3])[C@H](N[*:1])C(=O)[*:2]; NMeT = CN[C@H](C(=O)O)[C@@H](C)O; dPhLac = O=C(O)[C@H](O)Cc1ccccc1; NMeA = CN[C@@H](C)C(=O)O; NMeDha = C=C(NC)C(=O)O
How the values were obtained:
human GLP-1R [1] = biological target: T1, human GLP-1R (Homo sapiens, UniProt P43220); assay: Intracellular calcium mobilization (Gαq), FLIPR, CHO cells expressing the human GLP-1R; type: cell-based; conditions: 1 μM FR900359 in loading medium; CHO-GLP-1R expressing cells
T1 construct: expressed in transfected cells
T1 sequence (P43220 24-463): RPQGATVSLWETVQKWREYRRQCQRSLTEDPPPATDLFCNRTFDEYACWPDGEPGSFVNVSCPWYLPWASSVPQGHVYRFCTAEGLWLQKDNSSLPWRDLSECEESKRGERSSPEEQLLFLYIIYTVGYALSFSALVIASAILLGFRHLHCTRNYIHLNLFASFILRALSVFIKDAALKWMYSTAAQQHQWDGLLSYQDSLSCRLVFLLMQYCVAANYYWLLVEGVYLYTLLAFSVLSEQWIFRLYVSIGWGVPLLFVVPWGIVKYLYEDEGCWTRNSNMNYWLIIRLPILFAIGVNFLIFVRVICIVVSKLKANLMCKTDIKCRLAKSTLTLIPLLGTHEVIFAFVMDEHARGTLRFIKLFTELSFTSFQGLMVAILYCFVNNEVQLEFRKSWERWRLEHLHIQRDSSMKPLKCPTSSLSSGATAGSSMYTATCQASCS
Description: The stable CHO cell line (generated in-house using CHO-K1 cell line purchased from ATCC) expressing a functional human GLP-1R was cultured in F12 medium (Gibco) supplemented with 10% fetal bovine serum and 500 μg ml^−1 geneticin.

human GLP-1R [2] = assay: Ligand bias, equiactive comparison with Ex4 as reference; type: cell-based

Compound: C=C1C(=O)N[C@@H](C)C(=O)N(C)[C@@H](C)C(=O)N[C@@H]([C@H](OC(=O)[C@@H](NC(=O)CC)[C@H](O)C(C)C)C(C)C)C(=O)N(C)[C@@H]([C@@H](C)OC)C(=O)O[C@H](C(C)C)[C@H](NC(C)=O)C(=O)O[C@H](Cc2ccccc2)C(=O)N1C [FR900359] (Ac-[X1][dPhLac][NMeDha]A[NMeA][X1](Leu(3R-OH,Nα-propionyl))[NMeT](Me); ester 1-C)
- Inhibition of P5-induced increase in [Ca2+]i (human GLP-1R [1]): inhibited

Compound: CC[C@H](C)[C@H](NC(=O)[C@H](Cc1ccccc1)NC(=O)[C@H](CCC(=O)O)NC(=O)[C@H](CCCCN)NC(=O)[C@H](C)NC(=O)[C@H](C)NC(=O)[C@H](CCC(N)=O)NC(=O)CNC(=O)[C@H](CCC(=O)O)NC(=O)[C@H](CC(C)C)NC(=O)[C@H](Cc1ccc(O)cc1)NC(=O)[C@H](CO)NC(=O)[C@H](CO)NC(=O)[C@@H](NC(=O)[C@H](CC(=O)O)NC(=O)[C@H](CO)NC(=O)[C@@H](NC(=O)[C@H](Cc1ccccc1)NC(=O)[C@@H](NC(=O)CNC(=O)[C@H](CCC(=O)O)NC(=O)[C@H](C)NC(=O)[C@@H](N)Cc1c[nH]cn1)[C@@H](C)O)[C@@H](C)O)C(C)C)C(=O)N[C@@H](C)C(=O)N[C@@H](Cc1c[nH]c2ccccc12)C(=O)N[C@@H](CC(C)C)C(=O)N[C@H](C(=O)N[C@@H](CCCCN)C(=O)NCC(=O)N[C@@H](CCCNC(=N)N)C(N)=O)C(C)C [GLP-1, glucagon-like peptide-1]
- Ligand bias (in words) (human GLP-1R [2]): did not demonstrate detectable bias
- Bias factor (β), Gq vs β-arrestin 1 (human GLP-1R [2]; mean ± s.d.): 0.16 ± 0.13
- Bias factor (β), Gq vs β-arrestin 2 (human GLP-1R [2]; mean ± s.d.): 0.2 ± 0.08
- Bias factor (β), Gs vs β-arrestin 2 (human GLP-1R [2]; mean ± s.d.): -0.04 ± 0.11
- Bias factor (β), Gs vs β-arrestin 1 (human GLP-1R [2]; mean ± s.d. of a typical experiment performed three times): -0.08 ± 0.11

— publication PMC4686834, “Autocrine selection of a GLP-1R G-protein biased agonist with potent antidiabetic effects” (Nature Communications, 2015)
